# Results taken from patent US12622917B2, “High-activity Wnt pathway inhibitor compound” (ADLAI NORTYE BIOPHARMA CO., LTD., priority 2020, dated 2026).
# Read-outs that look alike come from different tables or passages of the source.
# Columns and labels:
# Format in all cases: cell-based
# [1] = tested on: Colo205-LUC-TCF/LEF M1 reporter cell line (Wnt pathway); assay: Colo205-LUC-TCF/LEF M1 reporter gene (luciferase) inhibition; conditions: 4 hours incubation, luciferase readout
# In short: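 Luminescent readout of TCF/LEF-regulated luciferase after a 4 h, 37° C compound exposure in a stable Colo205 reporter clone (10,000 cells/well). Serial 3-fold dilutions started at 20 uM; IC50 derived using DMSO-treated cells and no-cell wells as controls.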
# Colo205 = assay: Proliferation inhibition, Wnt mutant cell line Colo205; conditions: Colo205, Wnt pathway-dependent, 96 hours, read-out: Antiproliferative IC50 Colo205
# In short: (§1)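 Log-phase cells are plated (1000 per well) and allowed to settle for 20-24 h at 37° C. Compound is added in 3-fold steps, highest final concentration 20 uM, and growth continues for 96 hours before a Promega viability measurement, from which the IC50 is obtained.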
# DU4475 = assay: Proliferation inhibition, Wnt mutant cell line DU4475; conditions: DU4475, Wnt pathway-dependent, 96 hours, read-out: Antiproliferative IC50 DU4475
# In short: as §1
# Hela = assay: Proliferation inhibition, non-Wnt mutant control cell line Hela; conditions: Wnt-independent control cell line, 96 hours, read-out: Antiproliferative IC50 Hela
# Text: The cell lines used in the experiment are Colo205 and DU4475 cell lines whose Wnt pathway is continuously activated and whose proliferation is Wnt pathway-dependent; while the BELA and RKO cell lines, whose Wnt pathway is not activated under normal circumstances and the proliferation is independent of Wnt pathway, as control cell lines. It is Judged that the inhibitory effect of the compound of the present invention on Wnt-dependent proliferation is not caused by other non-specific toxicity.
# Treat the Colo205, Du4475, HELA and RKO cell lines cultured in their respective mediums in the logarithmic growth phase, collect the cells and prepare a uniform cell suspension of known concentration, and then add it to the 96-well cell culture plate Cell suspension, so that each well contains 1000 cells. Put it into a 5% CO2 incubator and incubate at 37° C. for 20-24 h. On the second day, the fully dissolved, 3-fold serially diluted compound was added to each cell culture well, so that the final maximum concentration in the cell culture well was 20 uM, and the culture was continued for 96 hours. In this test, Promega's cell viability detection test is used for detection. The more the cells proliferate, the stronger the final signal intensity will be. The detection instrument is SpectraMax, full wavelength mode. The wells only added with DMSO were used as positive control wells, and the wells that were not inoculated with cells were used as negative control wells. […] The IC50 value of cell proliferation inhibition was used to evaluate the inhibitory effect of the compound on the Wnt pathway and the toxic effect on normal cells (Table 2).
# RKO = assay: Proliferation inhibition, non-Wnt mutant control cell line RKO; conditions: Wnt-independent control cell line, 96 hours, read-out: Antiproliferative IC50 RKO
# In short: as §1
Compound,IC50 [1] [nM],"IC50 (Colo205; Homo sapiens, COLO 205) [nM]",IC50 (Hela; Homo sapiens) [nM],IC50 (Colo205) [nM],IC50 (Hela) [nM],"IC50 (DU4475; Homo sapiens, DU-4475) [nM]",IC50 (RKO; Homo sapiens) [nM],IC50 (DU4475) [nM],IC50 (RKO) [nM]
C[C@H]1CCn2ccc3nc(NCc4cnn(Cc5ccc(F)cc5)c4)nc(c32)N1C [63 (W22)],23,14.6,2590,–,–,36.3,3040,–,–
C[C@H]1Cn2ccc3nc(NCc4ccc(Oc5ccc(C(F)(F)F)nc5)cc4)nc(c32)N1C [78 (W87)],28,27.8,914,–,–,26.3,1420,–,–
"C[C@@H]1CN(C)c2nc(NCc3cnn(Cc4ccc(C(F)(F)F)nc4)c3)nc3ccn1c23 [Example 27, (R)-4,6-dimethyl-N-((1-((6-(trifluoromethyl)pyridin-3-yl)methyl)-1H-pyrazol-4-yl)methyl)-5,6-dihydro-4H-pyrrolo[3,2,1-de]pteridin-2-amine]",26,76,> 10000,–,–,37,4430,–,–
"COC[C@H]1C(=O)N2CCCc3nc(NCc4ccc(Oc5ccc(C(F)(F)F)nc5)nc4)nc(c32)N1C [106 (W190), (S)-5-(methoxymethyl)-4-methyl-2-(((6-((6-(trifluoromethyl)pyridin-3-yl)oxo)pyridin-3-yl)methyl)amino)-4,5,9,10-tetrahydro-6H,8H-pyrido[3,2,1-de]pteridin-6-one]",54,30,> 10000,–,–,46,> 10000,–,–
C[C@H]1C(=O)N2CCCc3nc(NCc4ccc(Oc5ccc(C(F)(F)F)nc5)cc4)nc(c32)N1C [101 (W213)],47,86,6980,–,–,73,3930,–,–
C[C@H]1Cn2ccc3nc(NCc4ccc(OCCOCC(F)(F)F)nc4)nc(c32)N1C [79 (W95)],20,43.9,3670,–,–,23.7,6890,–,–
"C[C@H]1C(=O)N2CCCc3nc(NCc4cnn(Cc5ccc(F)cc5)c4)nc(c32)N1C [Example 15, (S)-2-(((1-(4-fluorobenzyl)-1H-pyrazol-4-yl)methyl)amino)-4,5-dimethyl-4,5,9,10-tetrahydro-6H,8H-pyrido[3,2,1-de]pteridin-6-one]",53,41,> 10000,–,–,44,> 10000,–,–
C[C@H]1Cn2ccc3nc(NCc4cnn(CCCC(F)(F)F)c4)nc(c32)N1C [81 (W105)],17,33.4,> 10000,–,–,19.3,> 10000,–,–
"(S)-6,7-dimethyl-4-(((1-((6-(trifluoromethyl)pyridin-3-yl)methyl)-1H-pyrazol-4-yl)methyl)amino)-7,8-dihydro-3,5,6,9a-tetraazabenzo[cd]azulene-9(6H)-one [Example 6]",57,–,–,46,> 10000,–,–,59,> 10000
"FC(F)(F)c1ccc(Cn2cc(CNc3nc4c5c(ccn5C[C@@H]5COCCN45)n3)cn2)cn1 [Example 28, (R)—N-((1-((6-(trifluoromethyl)pyridin-3-yl)methyl)-1H-pyrazol-4-yl)methyl)-7a,8,10,11-tetrahydro-7H-[1,4]oxazino[3,4-h]pyrrolo[3,2,1-de]pteridin-2-amine]",27,29,> 10000,–,–,34,> 10000,–,–
"C[C@H]1CN(C)c2nc(NCc3cnn(Cc4ccc(C(F)(F)F)nc4)c3)nc3cc(C(F)F)n1c23 [Example 21, (S)-8-(difluoromethyl)-4,6-dimethyl-N-((1-((6-(trifluoromethyl)pyridin-3-yl)methyl)-1H-pyridine Azol-4-yl)methyl)-5,6-dihydro-4H-pyrrolo[3,2,1-de]pteridin-2-amine]",30,97,> 10000,–,–,73,3030,–,–

# These reach a lower IC50 [1]. Values come first.
IC50 [1] [nM],"IC50 (Colo205; Homo sapiens, COLO 205) [nM]",IC50 (Hela; Homo sapiens) [nM],IC50 (Colo205) [nM],IC50 (Hela) [nM],Compound,"IC50 (DU4475; Homo sapiens, DU-4475) [nM]",IC50 (RKO; Homo sapiens) [nM],IC50 (DU4475) [nM],IC50 (RKO) [nM]
15,9.2,3860,–,–,CN1c2nc(NCc3cnn(Cc4ccc(C(F)(F)F)nc4)c3)nc3ccn(c23)C[C@@H]1C1CC1 [75 (W77)],6.7,4260,–,–
14,13.3,7200,–,–,C[C@H]1Cn2ccc3nc(NCc4cnn(Cc5ccc(F)cc5)c4)nc(c32)N1CCO [62 (W13)],13.5,6540,–,–
13,9,> 10000,–,–,"[2H]C1([2H])[C@H](COC)N(C)c2nc(NCc3cnn(Cc4ccc(C(F)(F)F)nc4)c3)nc3ccn1c23 [Example 24, (R)-5-(methoxymethyl)-4-methyl-N-((1-((6-(trifluoromethyl)pyridin-3-yl)methyl)-1H-pyrazole-4-yl)methyl)-5,6-dihydro-4H-pyrrolo[3,2,1-de]pteridin-6,6-d2-2-amine]",9.7,> 10000,–,–
12,13.1,1410,–,–,C[C@H]1Cn2ccc3nc(NCc4cnn(Cc5ccc(C(F)(F)F)nc5)c4)nc(c32)N1CC(F)(F)F [70 (W55)],13.1,1730,–,–
11,16,> 10000,–,–,"CC(C)N1C[C@H](C)n2ccc3nc(NCc4cnn(Cc5ccc(C(F)(F)F)nc5)c4)nc1c32 [Example 23, (S)-4-isopropyl-6-methyl-N-((1-((6-(trifluoromethyl)pyridin-3-yl)methyl)-1H-pyrazol-4-yl)methyl)-5,6-dihydro-4H-pyrrolo[3,2,1-de]pteridin-2-amine]",15,3380,–,–
10,5.1,4900,–,–,C[C@H]1Cn2ccc3nc(NCc4cnn(CC5CCC(F)(F)CC5)c4)nc(c32)N1C [83 (W116)],5.1,7470,–,–
10,22,> 10000,–,–,"C[C@H]1Cn2c(C(F)F)cc3nc(NCc4cnn(Cc5ccc(C(F)(F)F)nc5)c4)nc(c32)N1C [Example 22, (S)-8-(difluoromethyl)-4,5-dimethyl-N-((1-((6-(trifluoromethyl)pyridin-3-yl)methyl)-1H-pyridine Azol-4-yl)methyl)-5,6-dihydro-4H-pyrrolo[3,2,1-de]pteridin-2-amine]",19,5420,–,–
8,4.7,2920,–,–,C[C@H]1Cn2ccc3nc(NCc4ccc(Oc5ccc(C(F)(F)F)nc5)nc4)nc(c32)N1C [77 (W86)],5.1,4010,–,–
7,6.7,2920,–,–,CN1c2nc(NCc3cnn(Cc4ccc(C(F)(F)F)nc4)c3)nc3ccn(c23)CC1CC(F)(F)F (centres unmarked) [87 (W136)],5.4,3980,–,–
7,4.8,> 10000,–,–,[2H]c1cc2nc(NCc3cnn(Cc4ccc(C(F)(F)F)nc4)c3)nc3c2n1C[C@H](C)N3C [72 (W57)],2.8,3230,–,–
2,5.5,4170,–,–,C[C@H]1Cn2ccc3nc(NCc4cnn(Cc5ccc(F)cc5)c4)nc(c32)N1C [61 (W2)],11.8,3440,–,–
